Test system: mouse established cell line L929
Assay: Cytotoxicity test (neutral red uptake, NR50)
Assay type: cell-based
Settings: L929 cells, 2 days incubation with sample; concentration at which 50% of the cells are killed
Protocol: The cytotoxicity test was made according to methods described in J. Biomed. Mater. Res. 29, 829-835 (1995) and by use of a mouse established cell line L929. In detail, cell dispersion was prepared to be 10,000 cells/mL; and 0.1 mL of the cell dispersion was sowed in each well of the 96-well culture plate and incubated at 37° C. for 3 days. Subsequently, each of the aqueous solutions mentioned above was diluted to one of various concentrations, and was charged into respective well by 0.1 mL. Then, incubation was further continued for 2 days. Subsequently, 0.1 mL of neural red culture-medium solution as prepared as 150 microgram/mL was added into the each well; and the incubation was made at 37° C. for 3 hours. After the incubation, culture medium was removed; and the cells were fixed by 1 wt % glutaraldehyde aqueous solution and thereafter air-dried. Subsequently, 0.1 mL of water/ethanol solution (equal-volume mixture) having 1 wt % of acetic acid was added; and then neural red molecules that had been taken into the cells were extracted. Light absorbency at 541 nm was measured and NR50 values were obtained from result of this measurement. The NR50 value indicates a concentration at which 50% of the cells are killed. The smaller the NR50 value becomes, the larger becomes the toxicity.

O=CCCCC=O [Glutaraldehyde]
NR50 value: 3.9 ± 0.7 µg/mL

C=O [Formaldehyde]
NR50 value: 1.7 ± 02 µg/mL
